Legend:
Type in all cases: cell-based
[1] = system: Escherichia coli; test: Primary bacteria screening; set-up: key: score: 3 = complete inhibition of growth, 2 = growth partially controlled; settings: test compound concentration 500 μMol in tryptose broth agar, 27° C.
Procedure: (§1) The stock solutions with the test compounds were pipetted into multiwell plates and mixed with warm tryptose broth agar (2.6%) in order to reach a test compound concentration of 500 μMol. The medium was allowed to cool and subsequently inoculated with the bacteria. Wells were placed in an incubator at 27° C. and a relative humidity of 70%. After sufficient growth of the untreated cultures, the test was evaluated.
(§2) 3: complete inhibition of bacterial growth
(§3) 2: bacterial growth partially controlled

[2] = system: Pseudomonas aeruginosa; test: Primary bacteria screening; set-up: key: score: 3 = complete inhibition of growth, 2 = growth partially controlled; settings: test compound concentration 500 μMol in tryptose broth agar, 27° C.
Procedure: as §1, §2, §3

[3] = system: Debaryomyces hansenii; test: Screening against yeasts; set-up: key: 3 = complete inhibition of growth, 2 = growth partially controlled; settings: test compound concentration 500 μM
Procedure: as §1, §2, §3
(§4) A number of compounds of formula (I) were also tested in a screening against certain The test conditions are the same as described in biological example C.1. The concentration of the test compound was also 500 μmol, and the scoring system used was also the same.
Debaryomyces hansenii (19)

[4] = system: Rhodotorula rubra; test: Screening against yeasts; set-up: key: 3 = complete inhibition of growth, 2 = growth partially controlled; settings: test compound concentration 500 μmol
Procedure: as §1, §2, §3, §4

[5] = system: Sporobolomyces roseus; test: Screening against yeasts; set-up: key: 3 = complete inhibition of growth, 2 = growth partially controlled; settings: test compound concentration 500 μmol
Procedure: as §1, §2, §3, §4
Sporobolomyces roseus (21)

[6] = system: Cellulomonas flavigena; test: Poison plate assay, synergistic effect in combinations with BIT; settings: for Calculated activity: Limpel's formula
Procedure: (§5) Biocidal activity against bacterial/yeast growth was determined with the poison plate assay. To obtain the required concentrations of the test compound, calculated amounts of stock solutions (DMSO) were pipetted into multi-well plates. Tryptose agar (except for Rhodotorula: PDA) was added aseptically and uniform distribution was obtained by shaking. Each plate was inoculated with a bacterial/yeast suspension. After incubation at 27° C. and 70% relative humidity, for a period long enough to allow complete growth of controls, percentage activity as compared to the control was scored.
(§6) Possible synergy was investigated using Limpel's formula (Richter, D. L., Pestic. Sci. 1987, 19: 309-315): [formula]
(§7) where EC is the expected additive response, or calculated activity, X is the observed percentage control when compound A is applied alone and Y is the observed percentage control when compound B is applied alone. Synergy was considered to occur when the observed effect, or measured activity, of a combination of both compounds was greater than the corresponding EC value.
(§8) The table C.4 to C.6 below enumerate the measured and calculated activities of BIT and compounds 20, 42 and 40 when tested as a single test compound or as a combination against Rhodotorula rubra or Cellulomonas flavigena. BIT (1,2-benzisothiazol-3(2H)-one) is a well-known bacteride and was tested at a concentration of 25 and 50 μmol. Compounds 20, 40 and 42 were tested at a concentration of 25, 50 and 75 μmol. When a synergistic effect was observed, the “measured” and “calculated” activity are indicated with a bold typeface.

[7] = system: Rhodotorula rubra; test: as above; settings: for Calculated activity: Limpel's formula
Procedure: as §5, §6, §7, §8

[8] = system: Providencia rettgeri; test: Poison plate assay, combinations with BAC; settings: for Calculated activity: Limpel's formula
Procedure: as §5, §6, §7
The table C.7 to C.8 below enumerate the measured and calculated activities of BAC and compounds 20, 42 and 40 when tested as a single test compound or as a combination against Providencia rettgeri. BAC (benzalconium chloride) is a well-bacteride and was tested at a concentration of 40 and 80 μmol. Compounds 20, 40 and 42 were tested at a concentration of 10, 20, 40, 80 and 160 μmol. When a synergistic effect was observed, the “measured” and “calculated” activity are indicated with a bold typeface.

[9] = BAC 40 μmol + compound 160 μmol
[10] = BAC 80 μmol + compound 160 μmol
[11] = combination BAC 40 μmol + compound 10 μmol
[12] = combination BAC 40 μmol + compound 20 μmol
[13] = combination BAC 40 μmol + compound 40 μmol
[14] = combination BAC 40 μmol + compound 80 μmol
[15] = combination BAC 40 μmol + compound 160 μmol
[16] = combination BAC 80 μmol + compound 10 μmol
[17] = combination BAC 80 μmol + compound 20 μmol
[18] = combination BAC 80 μmol + compound 40 μmol
[19] = combination BAC 80 μmol + compound 80 μmol
[20] = combination BAC 80 μmol + compound 160 μmol
[21] = combination BIT 25 μmol + compound 25 μmol
[22] = combination BIT 25 μmol + compound 50 μmol
[23] = combination BIT 25 μmol + compound 75 μmol
[24] = combination BIT 50 μmol + compound 25 μmol
[25] = combination BIT 50 μmol + compound 50 μmol
[26] = combination BIT 50 μmol + compound 75 μmol

Cl.Cl.Cl.NC1CCN(C2CCN(C(c3ccccc3)c3ccc(-c4ccccc4)cc3)CC2)CC1 (centres unmarked) [compound 49]
2: Test yeast (20) Rhodotorula rubra (score) [4]
3: E. coli (growth inhibition score) [1] | Test yeast (19) Debaryomyces hansenii (score) [3] | Test yeast (21) Sporobolomyces roseus (score) [5]
1: P. aeruginosa (growth inhibition score) [2]

Cc1ccc(C(c2ccc(-c3ccc(F)cc3)cc2)C2CCN(C3CCNCC3)CC2)cc1.Cl.Cl (centres unmarked) [compound 9]
3: E. coli (growth inhibition score) [1] | Test yeast (19) Debaryomyces hansenii (score) [3] | Test yeast (20) Rhodotorula rubra (score) [4] | Test yeast (21) Sporobolomyces roseus (score) [5]
2: P. aeruginosa (growth inhibition score) [2]

O=c1[nH]sc2ccccc12 [BIT, 1,2-benzisothiazol-3(2H)-one, reference compound]
100%: Measured activity ([6]; BIT alone 50 μmol)
0%: Measured activity ([6]; BIT alone 25 μmol) | Measured activity ([7]; BIT alone 25 μmol) | Measured activity ([7]; BIT alone 50 μmol)

Cl.Cl.NCCCNCCC(c1ccccc1)c1ccc(-c2ccccc2)cc1 (centres unmarked) [Co. No. 40]
100%: Calculated activity ([8]; BAC 40 μmol + compound 80 μmol) | Calculated activity [8, 9] | Calculated activity ([8]; BAC 80 μmol + compound 10 μmol) | Calculated activity ([8]; BAC 80 μmol + compound 20 μmol) | Calculated activity ([8]; BAC 80 μmol + compound 40 μmol) | Calculated activity ([8]; BAC 80 μmol + compound 80 μmol) | Calculated activity [8, 10] | Measured activity [8, 11] | Measured activity [8, 12] | Measured activity [8, 13] | Measured activity [8, 14] | Measured activity [8, 15] | Measured activity [8, 16] | Measured activity [8, 17] | Measured activity [8, 18] | Measured activity [8, 19] | Measured activity [8, 20] | Measured activity ([8]; compound alone 80 μmol) | Measured activity ([8]; compound alone 160 μmol)
50%: Calculated activity ([8]; BAC 40 μmol + compound 10 μmol) | Calculated activity ([8]; BAC 40 μmol + compound 20 μmol)
0%: Measured activity ([8]; compound alone 10 μmol) | Measured activity ([8]; compound alone 20 μmol)
95%: Calculated activity ([8]; BAC 40 μmol + compound 40 μmol)
3: E. coli (growth inhibition score) [1] | P. aeruginosa (growth inhibition score) [2] | Test yeast (19) Debaryomyces hansenii (score) [3] | Test yeast (20) Rhodotorula rubra (score) [4] | Test yeast (21) Sporobolomyces roseus (score) [5]
90%: Measured activity ([8]; compound alone 40 μmol)

Cl.Cl.O.c1ccc(-c2ccc(C(c3ccccc3)C3CCN(C4CCNCC4)CC3)cc2)cc1 (racemic) [Co. No. 20, (±)-4-[[(1,1′-biphenyl)-4-yl]phenylmethyl](1,4′-bipiperidine)dihydrochloride monohydrate]
90%: Calculated activity ([8]; BAC 40 μmol + compound 80 μmol) | Measured activity ([8]; compound alone 80 μmol)
30%: Calculated activity ([8]; BAC 40 μmol + compound 40 μmol) | Measured activity ([8]; compound alone 40 μmol)
95%: Measured activity [6, 23]
3: E. coli (growth inhibition score) [1] | P. aeruginosa (growth inhibition score) [2] | Test yeast (19) Debaryomyces hansenii (score) [3] | Test yeast (20) Rhodotorula rubra (score) [4] | Test yeast (21) Sporobolomyces roseus (score) [5]
50%: Measured activity [8, 11] | Measured activity [8, 12]
0%: Calculated activity ([6]; BIT 25 μmol + compound 25 μmol) | Calculated activity ([6]; BIT 25 μmol + compound 50 μmol) | Calculated activity ([6]; BIT 25 μmol + compound 75 μmol) | Measured activity [6, 21] | Measured activity ([6]; compound alone 25 μmol) | Measured activity ([6]; compound alone 50 μmol) | Measured activity ([6]; compound alone 75 μmol) | Calculated activity ([7]; BIT 25 μmol + compound 25 μmol) | Calculated activity ([7]; BIT 25 μmol + compound 50 μmol) | Calculated activity ([7]; BIT 25 μmol + compound 75 μmol) | Calculated activity ([7]; BIT 50 μmol + compound 25 μmol) | Calculated activity ([7]; BIT 50 μmol + compound 50 μmol) | Calculated activity ([7]; BIT 50 μmol + compound 75 μmol) | Measured activity [7, 21] | Measured activity ([7]; compound alone 25 μmol) | Measured activity ([7]; compound alone 50 μmol) | Measured activity ([7]; compound alone 75 μmol) | Calculated activity ([8]; BAC 40 μmol + compound 10 μmol) | Calculated activity ([8]; BAC 40 μmol + compound 20 μmol) | Measured activity ([8]; compound alone 10 μmol) | Measured activity ([8]; compound alone 20 μmol)
100%: Calculated activity ([6]; BIT 50 μmol + compound 25 μmol) | Calculated activity ([6]; BIT 50 μmol + compound 50 μmol) | Calculated activity ([6]; BIT 50 μmol + compound 75 μmol) | Measured activity [6, 22] | Measured activity [6, 24] | Measured activity [6, 25] | Measured activity [6, 26] | Measured activity [7, 22] | Measured activity [7, 23] | Measured activity [7, 24] | Measured activity [7, 25] | Measured activity [7, 26] | Calculated activity [8, 9] | Calculated activity ([8]; BAC 80 μmol + compound 10 μmol) | Calculated activity ([8]; BAC 80 μmol + compound 20 μmol) | Calculated activity ([8]; BAC 80 μmol + compound 40 μmol) | Calculated activity ([8]; BAC 80 μmol + compound 80 μmol) | Calculated activity [8, 10] | Measured activity [8, 13] | Measured activity [8, 14] | Measured activity [8, 15] | Measured activity [8, 16] | Measured activity [8, 17] | Measured activity [8, 18] | Measured activity [8, 19] | Measured activity [8, 20] | Measured activity ([8]; compound alone 160 μmol)

Source: patent US6440440B1, “Biocidal benzylbiphenyl derivatives” (priority 1998, dated 2002)
